Source: patent publication US11267800B2, “Cyclohexyl acid triazole azines as LPA antagonists” (BRISTOL-MYERS SQUIBB COMPANY, priority 2017, dated 2022)
Where a name gives a salt, the structure may show the parent alone.

target: T1, human LPA1 (Homo sapiens, UniProt Q92633); experiment: LPA1 functional antagonist assay (calcium flux); type: cell-based; conditions: CHO cells overexpressing human LPA1; inhibition of calcium flux induced by 10 nM LPA; read-out: hLPA1 IC50
T1 construct: expressed in transfected cells; host or cells: Chinese hamster ovary (CHO) cells
T1 sequence (Q92633 whole entry): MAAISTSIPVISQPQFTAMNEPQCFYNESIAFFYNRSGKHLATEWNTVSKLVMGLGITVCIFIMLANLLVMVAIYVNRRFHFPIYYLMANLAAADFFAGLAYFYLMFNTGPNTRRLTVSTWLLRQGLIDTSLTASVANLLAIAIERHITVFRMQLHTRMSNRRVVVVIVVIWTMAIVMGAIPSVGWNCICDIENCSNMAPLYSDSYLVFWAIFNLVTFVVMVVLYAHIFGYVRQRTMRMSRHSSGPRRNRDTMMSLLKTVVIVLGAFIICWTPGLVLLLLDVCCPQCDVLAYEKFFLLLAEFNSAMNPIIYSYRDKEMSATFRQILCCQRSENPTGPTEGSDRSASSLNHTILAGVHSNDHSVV
Method in brief: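 Dye-loaded CHO cells overexpressing human LPA1 (30 min, 37 °C) were preincubated 20 min at room temperature with compound (0.08 nM–5 μM; 0.5% DMSO; HBSS, 20 mM HEPES, 0.1% fatty-acid-free BSA), then stimulated with 10 nM LPA. IC50 is the concentration inhibiting 50% of LPA-induced calcium flux, from a 4-parameter logistic fit.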

IC50 [nM] | Compound
61 | COc1cc(OC)nc(NCc2c(-c3ccc(O[C@H]4CCC[C@H](C(=O)O)C4)c(C)n3)nnn2C)n1 [Example 172]
127 | CCOc1cc(OCC)nc(NCc2c(-c3ccc(O[C@H]4CCC[C@H](C(=O)O)C4)c(C)n3)nnn2C)n1 [Example 173]
56 | CCOc1cc(C)nc(NCc2c(-c3ccc(O[C@H]4CCC[C@H](C(=O)O)C4)c(C)n3)nnn2C)n1 [Example 174]
384 | Cc1nc(-c2nnn(C)c2CNc2nc(OC(C)C)cc(OC(C)C)n2)ccc1O[C@H]1CCC[C@H](C(=O)O)C1 [Example 175]
27 | COc1cc(C(C)C)nc(NCc2c(-c3ccc(O[C@H]4CCC[C@H](C(=O)O)C4)c(C)n3)nnn2C)n1 [Example 176]
250 | CCCOc1nc(NCc2c(-c3ccc(O[C@H]4CCC[C@H](C(=O)O)C4)c(C)n3)nnn2C)nc(OC)n1 [Example 177]
498 | Cc1nc(-c2nnn(C)c2CNc2nncc(C(C)(C)C)n2)ccc1O[C@H]1CCC[C@H](C(=O)O)C1 [Example 178]
246 | Cc1nc(-c2nnn(C)c2CNc2cc(OC3CCC3)ccn2)ccc1O[C@H]1CCC[C@H](C(=O)O)C1 [Example 180]
106 | Cc1nc(-c2nnn(C)c2CNc2ncnc(C(C)C)n2)ccc1O[C@H]1CCC[C@H](C(=O)O)C1 [Example 181]
693 | Cc1nc(-c2nnn(C)c2CNc2ncnc(C(C)(C)C)n2)ccc1O[C@H]1CCC[C@H](C(=O)O)C1 [Example 182]
54 | Cc1nc(-c2nnn(C)c2CNc2ncnc(C3CCC3)n2)ccc1O[C@H]1CCC[C@H](C(=O)O)C1 [Example 183]
90 | Cc1nc(-c2nnn(C)c2CNc2ncnc(C3CCCC3)n2)ccc1O[C@H]1CCC[C@H](C(=O)O)C1 [Example 184]
288 | Cc1nc(-c2nnn(C)c2CNc2ncnc(C3CCCCC3)n2)ccc1O[C@H]1CCC[C@H](C(=O)O)C1 [Example 185]
717 | Cc1nc(-c2nnn(C)c2CNc2nc(O)nc(C3CCCCC3)n2)ccc1O[C@H]1CCC[C@H](C(=O)O)C1 [Example 186]
48 | Cc1nc(-c2nnn(C)c2CNc2ncnc(C3CC3)n2)ccc1O[C@H]1CCC[C@H](C(=O)O)C1 [Example 187, (1S,3S)-3-((6-(5-(((4-Cyclopropyl-1,3,5-triazin-2-yl)amino)methyl)-1-methyl-1H-1,2,3-triazol-4-yl)-2-methylpyridin-3-yl)oxy)cyclohexane-1-carboxylic acid, bis TFA Salt]
138 | Cc1nc(NCc2c(-c3ccc(O[C@H]4CCC[C@H](C(=O)O)C4)c(C)n3)nnn2C)nc(C2CC2)n1 [Example 188, (1S,3S)-3-((6-(5-(((4-Cyclopropyl-6-methyl-1,3,5-triazin-2-yl)amino)methyl)-1-methyl-1H-1,2,3-triazol-4-yl)-2-methylpyridin-3-yl)oxy)cyclohexane-1-carboxylic acid, bis TFA Salt]

IC50 [nM] | Compound
108 | CCCCc1cnnc(NCc2c(-c3ccc(O[C@H]4CCC[C@H](C(=O)O)C4)c(C)n3)nnn2C)c1 [Example 189, (1S,3S)-3-((6-(5-(((5-Butylpyridazin-3-yl)amino)methyl)-1-methyl-1H-1,2,3-triazol-4-yl)-2-methylpyridin-3-yl)oxy)cyclohexane-1-carboxylic acid, bis TFA salt]
53 | Cc1nc(-c2nnn(C)c2CNc2nncc(-c3ccccc3)n2)ccc1O[C@H]1CCC[C@H](C(=O)O)C1 [Example 192, (1S,3S)-3-((2-Methyl-6-(1-methyl-5-(((5-phenyl-1,2,4-triazin-3-yl)amino)methyl)-1H-1,2,3-triazol-4-yl)pyridin-3-yl)oxy)cyclohexane-1-carboxylic acid, bis TFA Salt]
6.8 | CCCCc1cnnc(NCc2c(-c3ccc(O[C@H]4CCC[C@H](C(=O)O)C4)c(C)n3)nnn2C)n1 [Example 193, (1S,3S)-3-((6-(5-(((5-Butyl-1,2,4-triazin-3-yl)amino)methyl)-1-methyl-1H-1,2,3-triazol-4-yl)-2-methylpyridin-3-yl)oxy)cyclohexane-1-carboxylic acid, bis TFA]
63 | CCc1ncnc(NCc2c(-c3ccc(O[C@H]4CCC[C@H](C(=O)O)C4)c(C)n3)nnn2C)n1 [Example 194, (1S,3S)-3-((6-(5-(((4-Ethyl-1,3,5-triazin-2-yl)amino)methyl)-1-methyl-1H-1,2,3-triazol-4-yl)-2-methyl-pyridin-3-yl)oxy)cyclohexane-1-carboxylic acid]
225 | CCCc1ncnc(NCc2c(-c3ccc(O[C@H]4CCC[C@H](C(=O)O)C4)c(C)n3)nnn2C)n1 [Example 195, (1S,3S)-3-((2-Methyl-6-(1-methyl-5-(((4-propyl-1,3,5-triazin-2-yl)amino)methyl)-1H-1,2,3-triazol-4-yl)pyridin-3-yl)oxy)cyclohexane-1-carboxylic acid]
2190 | Cc1ncnc(NCc2c(-c3ccc(O[C@H]4CCC[C@H](C(=O)O)C4)c(C)n3)nnn2C)n1 [Example 196, (1S,3S)-3-((2-Methyl-6-(1-methyl-5-(((4-methyl-1,3,5-triazin-2-yl)amino)methyl)-1H-1,2,3-triazol-4-yl)pyridin-3-yl)oxy)cyclohexane-1-carboxylic acid]
29 | CCCCc1ncnc(NCc2c(-c3ccc(O[C@H]4CCC[C@H](C(=O)O)C4)c(C)n3)nnn2C)n1 [Example 199, (1S,3S)-3-((6-(5-(((4-Butyl-1,3,5-triazin-2-yl)amino)methyl)-1-methyl-1H-1,2,3-triazol-4-yl)-2-methyl-pyridin-3-yl)oxy)cyclohexane-1-carboxylic acid]
77 | Cc1nc(-c2nnn(C)c2CNc2ncnc(CC(C)C)n2)ccc1O[C@H]1CCC[C@H](C(=O)O)C1 [Example 200, (1S,3S)-3-((6-(5-(((4-Isobutyl-1,3,5-triazin-2-yl)amino)methyl)-1-methyl-1H-1,2,3-triazol-4-yl)-2-methyl-pyridin-3-yl)oxy)cyclohexane-1-carboxylic acid]
105 | COc1nc(NCc2c(-c3ccc(O[C@H]4CCC[C@H](C(=O)O)C4)c(C)n3)nnn2C)nc(C2CC2)n1 [Example 201, (1S,3S)-3-((6-(5-(((4-Cyclopropyl-6-methoxy-1,3,5-triazin-2-yl)amino)methyl)-1-methyl-1H-1,2,3-triazol-4-yl)-2-methylpyridin-3-yl)oxy)cyclohexane-1-carboxylic acid, bis TFA Salt]
32 | CCOc1nc(NCc2c(-c3ccc(O[C@H]4CCC[C@H](C(=O)O)C4)c(C)n3)nnn2C)nc(C2CC2)n1 [Example 202, (1S,3S)-3-((6-(5-(((4-Cyclopropyl-6-ethoxy-1,3,5-triazin-2-yl)amino)methyl)-1-methyl-1H-1,2,3-triazol-4-yl)-2-methylpyridin-3-yl)oxy) cyclohexane-1-carboxylic acid]
59 | CCc1nc(CC)nc(NCc2c(-c3ccc(O[C@H]4CCC[C@H](C(=O)O)C4)c(C)n3)nnn2C)n1 [Example 203, (1S,3S)-3-((6-(5-(((4,6-Diethyl-1,3,5-triazin-2-yl)amino)methyl)-1-methyl-1H-1,2,3-triazol-4-yl)-2-methyl-pyridin-3-yl)oxy)cyclohexane-1-carboxylic acid]
106 | CCC(C)Cc1ncnc(NCc2c(-c3ccc(O[C@H]4CCC[C@H](C(=O)O)C4)c(C)n3)nnn2C)n1 (stereo partly drawn) [Example 204, (1S,3S)-3-((2-Methyl-6-(1-methyl-5-(((4-(2-methylbutyl)-1,3,5-triazin-2-yl)amino)methyl)-1H-1,2,3-triazol-4-yl)pyridin-3-yl)oxy)cyclohexane-1-carboxylic acid]
40 | Cc1nc(-c2nnn(C)c2CNc2ncnc(CCC(C)C)n2)ccc1O[C@H]1CCC[C@H](C(=O)O)C1 [Example 205, (1S,3S)-3-((6-(5-(((4-Isopentyl-1,3,5-triazin-2-yl)amino)methyl)-1-methyl-1H-1,2,3-triazol-4-yl)-2-methyl-pyridin-3-yl)oxy)cyclohexane-1-carboxylic acid]
120 | Cc1nc(-c2nnn(C)c2CNc2ncnc(CCC(C)(C)C)n2)ccc1O[C@H]1CCC[C@H](C(=O)O)C1 [Example 206, (1S,3S)-3-((6-(5-(((4-(3,3-Dimethylbutyl)-1,3,5-triazin-2-yl)amino)methyl)-1-methyl-1H-1,2,3-triazol-4-yl)-2-methylpyridin-3-yl)oxy)cyclohexane-1-carboxylic acid]
53 | Cc1nc(-c2nnn(C)c2CNc2ncnc(C3(C)CC3)n2)ccc1O[C@H]1CCC[C@H](C(=O)O)C1 [Example 207, (1S,3S)-3-((2-Methyl-6-(1-methyl-5-(((4-(1-methylcyclopropyl)-1,3,5-triazin-2-yl)amino)methyl)-1H-1,2,3-triazol-4-yl)pyridin-3-yl)oxy) cyclohexane-1-carboxylic acid]
89 | CCOc1ncnc(NCc2c(-c3ccc(O[C@H]4CCC[C@H](C(=O)O)C4)c(C)n3)nnn2C)n1 [Example 208, (1S,3S)-3-((6-(5-(((4-Ethoxy-1,3,5-triazin-2-yl)amino)methyl)-1-methyl-1H-1,2,3-triazol-4-yl)-2-methyl-pyridin-3-yl)oxy)cyclohexane-1-carboxylic acid]

Compound | IC50 [nM]
Cc1nc(-c2nnn(C)c2CNc2cc(OC3CCC3)cnn2)ccc1O[C@H]1CCC[C@H](C(=O)O)C1 [Example 190, (1S,3S)-3-((6-(5-(((5-Cyclobutoxypyridazin-3-yl)amino)methyl)-1-methyl-1H-1,2,3-triazol-4-yl)-2-methylpyridin-3-yl)oxy)cyclohexane-1-carboxylic acid, bis TFA Salt] | 187
Cc1nc(-c2nnn(C)c2CNc2nnccc2OC2CCC2)ccc1O[C@H]1CCC[C@H](C(=O)O)C1 [Example 191, (1S,3S)-3-((6-(5-(((4-Cyclobutoxypyridazin-3-yl)amino)methyl)-1-methyl-1H-1,2,3-triazol-4-yl)-2-methylpyridin-3-yl)oxy)cyclohexane-1-carboxylic acid, bis TFA Salt] | 103
